# How the values were obtained:
# [1] = compared with KRN5500; cited from earlier work
# Male Sprague-Dawley rats = experiment: Mechanical allodynia (von Frey filaments) in rat segmental spinal nerve injury and chronic constriction nerve injury models, results combined; type: in vivo; settings: single injection
# Method: Male Sprague-Dawley rats (Charles River Laboratories) weighing 150-200 g were used to evaluate the analgesic properties of the SAN-Gly formulation. The animals were housed in groups of three in plastic cages with soft bedding and under a 12 hour light/dark cycle. Food and water were available ad libitum. After one week of acclimatization to the laboratory conditions, all animals were tested to establish a baseline mechanical allodynia.
# Since different animal models of pain can provide different experimental results, SAN-Gly was tested using two rat models. All experiments were performed in a single-blinded fashion, i.e., the experimenter was not aware of which rats received the control saline and which rats received the SAN-Gly formulation.
# One rat model used was based on an experimentally produced segmental spinal nerve injury (Kim et al., Pain 50:355-363, 1992). One week after the acclimatization to laboratory conditions, baseline measurements were recorded and surgery was performed as described in Kim et al., supra. Rats were anesthetized with halothane in oxygen and placed in a prone position. A midline skin incision at L4-S2 was made, and paraspinal muscles were separated from the spinous processes in the L4-S2 region. […]
# The rats were allowed to recover from surgery for at least a week. […] Both groups were then monitored for allodynia at various time points after surgery. […]
# [2] = test system: primary afferent-evoked excitatory postsynaptic currents (EPSCs) from lamina II; experiment: Electrophysiological recording of primary afferent-evoked EPSCs in lumbar spinal cord slices from spared-nerve injury animals; type: cell-based
# Text: Electrophysiological recordings were done on 650 μm thick transverse slices of lumbar spinal cord (from spared-nerve injury animals) with attached L4 dorsal root that were perfused with ice cold Krebs' solution ([in mM]: NaCl 117, KCl 3.6, CaCl2 2.5, MgCl2 1.2, NaH2PO4 1.2, NaHCO3 25 and glucose 11) saturated with 95% O2 and 5% CO2. To record primary afferent-evoked excitatory postsynaptic currents (EPSCs) from lamina II, whole cells were patch-clamped and then voltage-clamped at −70 mV. Orthodromicstimulation of L4 dorsal root was performed with a suction electrode attached to a constant current stimulator and graded intensity stimulation sufficient to recruit different afferent populations (Aβ, Aδ, and C-fibers) was used. Resistance of patch pipettes were 5-10 MW when filled with (in mM): Cs2SO4 110, CaCl2 0.5, MgCl2 2, EGTA 5, HEPES 5, TEA 5, ATP-Mg salt 5. Currents were amplified (Axopatch 200A), filtered at 2 kHz, digitized at 5 kHz and analyzed using pCLAMP 6 (Axon Instruments). SAN-Gly was dissolved in ice cold KREBs and bath-applied at two concentrations ([…]). […] In addition, as expected, the same concentration of SAN had no effect.
# [3] = 100 mM bath-applied, whole-cell patch clamp at -70 mV, observed in three out of five cells
compound,measurement,setting,value
"NCC(=O)N[C@@H]1[C@@H](O)[C@@H](O)[C@@H](Nc2ncnc3[nH]cnc23)O[C@H]1[C@@H](O)CO [SAN-Gly, 4′-N-glycyl spicamycin amino nucleoside]",cytotoxicity relative to water-insoluble spicamycin derivatives such as KRN5500,[1],less cytotoxic
same,recovery towards baseline pain behavior,"Male Sprague-Dawley rats; 100 mg/kg body weight, single bolus in the tail vein, both animal models combined (FIG. 1)",60%
same,persistence of increased pain tolerance,"Male Sprague-Dawley rats; 100 mg/kg, tail vein, days after surgery as printed, both models combined",at least 7 days
same,amplitude of EPSCs,[2]; [3],reduced the amplitude
same,latency of EPSCs,[2]; [3],increased the latency
same,effect on EPSCs upon washout of the drug,[2]; after 100 mM bath application,reversed upon washout
